Literature values as cited in patent US20220395497A1, “Cancer Treatment Using Camptothecin Derivatives” (priority 2019, published 2022).
Where two headings read alike, the source gives them in different places. Marks after values point to notes of the source that are not given here.

Experiments:
[1] = test system: Recurrent Colorectal cancer patients; details: N = 316 across 2 studies, cited from earlier work
[2] = test system: Colorectal cancer patients; details: w/5FU, LV, bolus, N = 225; cited from earlier work
[3] = test system: Colorectal cancer patients; details: single agent, bolus, N = 223; cited from earlier work
[4] = test system: Metastatic Colorectal cancer patients; details: previously treated, cited from earlier work
[5] = in vivo; cited from earlier work
reGBM patients [6] = details: cited from earlier work; for Diarrhoea Grades 3-5 / Neutropenia Grades 3-4 / Thrombocytopenia Grades 3-4: reGBM, single agent
reGBM patients [7] = details: cited from earlier work
[8] = test system: cells in the S phase of the cell cycle; details: in vitro; cited from earlier work
reGBM patients [9] = details: single agent vs Enzastaurin, N = 92, Treated = 84; cited from earlier work
reGBM patients [10] = details: single agent/placebo, N = 64; cited from earlier work
BCBM patients = details: Phase 3 BEACON Study, N = 425; cited from earlier work
GBM/AA patients = details: single agent Phase II, N = 20 in heavily pretreated bev failures; cited from earlier work

For `CCc1c2c(nc3ccc(OC(=O)N4CCC(N5CCCCC5)CC4)cc13)-c1cc3c(c(=O)n1C2)COC(=O)[C@]3(O)CC` [Irinotecan], the “Diarrhoea Grade 4” value ([1]; average across 2 studies) is listed as 22%*, the “Nausea Grades 3,4” value ([1]; average across 2 studies) is listed as 12%* and the “Vomiting Grades 3,4” value ([1]; average across 2 studies) is listed as 14%*. The “Neutropenia Grade 4” value [1] was 18%, the “Diarrhoea Grade 4” value [2] was 5% and the “Nausea Grades 3,4” value [2] was 16%. The “Neutropenia Grade 4” value [2] was 24%, the “Vomiting Grades 3,4” value [2] was 10% and the “Diarrhoea Grade 4” value [3] was 7%. The “Nausea Grades 3,4” value [3] was 16%, the “Neutropenia Grade 4” value [3] was 12% and the “Vomiting Grades 3,4” value [3] was 12%. For the same compound, the “Diarrhoea Grade 4” value ([4]; N = 304, late diarrhoea) was 14%**, the “Nausea Grades 3,4” value ([4]; N = 304) was 17% and the “Neutropenia Grade 4” value ([4]; N = 304) was 12%. For the same compound, the “Vomiting Grades 3,4” value ([4]; N = 304) was 12%.
In the case of `CCc1c2c(nc3ccc(O)cc13)-c1cc3c(c(=O)n1C2)COC(=O)[C@]3(O)CC` [SN-38], the “ratio of the lactone AUC to total AUC” value [5] is given as 0.51.
For `CC[C@@]1(O)C(=O)OCc2c1cc1n(c2=O)Cc2c-1nc1ccccc1c2/C=N/OC(C)(C)C` [Gimatecan], the “treatment-related toxicities of thrombocytopenia, leukopenia, and neutropenia, patients” value (reGBM patients [6]; Phase II trial, oral) is listed as 10-18%, the PFS6 (reGBM patients [6]; in vivo) is listed as 12% and the “Diarrhoea Grades 3-5” value (reGBM patients [6]; N = 10 High Dose) is listed as 0%. For the same compound, the “Neutropenia Grades 3-4” value (reGBM patients [6]; N = 10 High Dose) was 30%, the “Thrombocytopenia Grades 3-4” value (reGBM patients [6]; N = 10 High Dose) was 40% and the “Diarrhoea Grades 3-5” value (reGBM patients [6]; N = 10 Low Dose) was 0%. The “Neutropenia Grades 3-4” value (reGBM patients [6]; N = 10 Low Dose) was 0% and the “Thrombocytopenia Grades 3-4” value (reGBM patients [6]; N = 10 Low Dose) was 5%.
For `CC[C@@]1(O)C(=O)OCc2c1cc1n(c2=O)Cc2c-1nc1ccccc1c2CC[Si](C)(C)C` [Karenitecin], the “neutropenia and thrombocytopenia, patients” value (reGBM patients [7]; Phase I trial) is listed as 13-23%, the “Diarrhoea Grades 3-5” value (reGBM patients [7]; reGBM, single agent, N = 30) is listed as 3% and the “Neutropenia Grades 3-4” value (reGBM patients [7]; reGBM, single agent, N = 30) is listed as 23%. The “Thrombocytopenia Grades 3-4” value (reGBM patients [7]; reGBM, single agent, N = 30) was 13%.
In the case of `CC[C@@]1(O)C(=O)OCc2c1cc1n(c2=O)Cc2cc3ccccc3nc2-1` [camptothecin], the “sensitivity to camptothecin-induced apoptosis, S phase cells vs cells in the G1 or G2 phase” value [8] is listed as 100 to 1,000 times.
For `CC[C@@]1(O)C(=O)OCc2c1cc1n(c2=O)Cc2cc3c(CN(C)C)c(O)ccc3nc2-1` [topotecan], the “ratio of the lactone AUC to total AUC” value [5] is listed as 0.37.
For `O=NN(CCCl)C(=O)NC1CCCCC1` [Lomustine], the “Nausea Grades 3-5” value (reGBM patients [9]) is listed as 0%, the “Neutropenia Grades 3-4” value (reGBM patients [9]) is listed as 20% and the “Thrombocytopenia Grades 3-4” value (reGBM patients [9]) is listed as 25%. The “Diarrhoea Grades 3-5” value (reGBM patients [10]) was 2%, the “Neutropenia Grades 3-4” value (reGBM patients [10]) was 3% and the “Thrombocytopenia Grades 3-4” value (reGBM patients [10]) was 22%.
In the case of Etirinotecan, the “Diarrhoea Grades 3-5” value (BCBM patients) is listed as 10%, the “Nausea Grades 3-5” value (BCBM patients) is listed as 4% and the “Neutropenia Grades 3-4” value (BCBM patients) is listed as 10%. For the same compound, the “Diarrhoea Grades 3-5” value (GBM/AA patients) was 10%.
